From patent US20220281825A1 (priority 2016, published 2022) come the findings set out here.

One data set concerns VSV-p. As to the kind of experiment: microbe, parasite or virus in culture. Format: cell-based. Particulars: Vesicular stomatitis virus, Vero, 24 h, read-out: VSV-p EC50 (nM).
A short description of another data set: in vitro. Particulars: African green monkey.
For the next data set, the system named is TCRV-p. As to the kind of experiment: organism not typed. It is filed as cell-based. Particulars: Vero, 24 h, read-out: TCRV-p EC50 (nM).
Another data set relates to LASV-p. The data set is described as follows: organism not typed. Particulars: Vero, 24 h, read-out: LASV-p EC50 (nM). Format: cell-based, Lassa (LASV).
In a further data set the test system is MACV-p. As to the kind of experiment: organism not typed. It is filed as cell-based, Machupo (MACV). Particulars: Vero, 24 h, read-out: MACV-p EC50 (nM).
The subject of another data set is JUNV-p. As to the kind of experiment: organism not typed. Format: cell-based, Junin (JUNV). Particulars: Vero, 24 h, read-out: JUNV-p EC50 (nM).
The subject of another data set is GTOV-p. The data set is described as follows: organism not typed. Particulars: Vero, 24 h, read-out: GTOV-p EC50 (nM). Format: cell-based, Guanarito (GTOV).

Bounds are passed on as bounds.

A word on the EC50: it is the midpoint of the concentration-response curve. Regarding `COc1ccc(-n2cnc3ccc(-c4ccc(N(C)C)cc4)cc32)cc1` [Example A7, 4-[1-(4-methoxyphenyl)-1H-1,3-benzodiazol-6-yl]-N,N-dimethylaniline], the EC50 is 980 nM in the data set with VSV-p; above 25 nM in the data set on TCRV-p; 8.9 nM with LASV-p; 17 nM in the data set on MACV-p; 1.8 nM with JUNV-p. Also, the CC50 in the data set “in vitro” stood at 3960 nM.

Consider `COc1ccc(-n2cnc3ccc(-c4ccc(C(C)(C)O)cc4)cc32)cc1` [Example A8, 2-{4-[1-(4-methoxyphenyl)-1H-1,3-benzodiazol-6-yl]phenyl}propan-2-ol], for which the EC50 is above 1000 nM in the data set with VSV-p; 21.7 nM with TCRV-p; 6.4 nM in the data set on LASV-p; 22.3 nM in the data set on MACV-p; 3.98 nM in the data set with JUNV-p. In the data set “in vitro”, this compound registered a CC50 of 9540 nM.

With `COc1ccc(-n2cnc3ccc(-c4ccc5[nH]ccc5c4)cc32)cc1` [Example A12, 6-(1H-indol-5-yl)-1-(4-methoxyphenyl)-1H-1,3-benzodiazole], the EC50 in the data set on VSV-p is 800 nM; in the data set with TCRV-p, 21.4 nM; in the data set with LASV-p it was 0.81 nM; in the data set on MACV-p, above 25 nM; in the data set with JUNV-p, 19.3 nM. The CC50 in the data set “in vitro” came out at 200 nM.

As for `COc1ccc(-n2cnc3ccc(-c4ccc(N5CCOCC5)cc4)cc32)cc1` [Example A16, 1-(4-methoxyphenyl)-6-[4-(morpholin-4-yl)phenyl]-1H-1,3-benzodiazole], the EC50 is above 1000 nM in the data set with VSV-p; above 25 nM with TCRV-p; 17.2 nM with LASV-p; above 25 nM in the data set with MACV-p; 15.3 nM with JUNV-p. Further, the CC50 in the data set “in vitro” is above 100000 nM.

`CC(C)Oc1ccc(-n2cnc3ccc(-c4ccc(N(C)C)cc4)cc32)cc1` [Example A18, N,N-dimethyl-4-{1-[4-(propan-2-yloxy)phenyl]-1H-1,3-benzodiazol-6-yl}aniline]: the EC50 in the data set with VSV-p was above 1000 nM; with TCRV-p, 12.5 nM; in the data set on LASV-p, 1.08 nM; in the data set with MACV-p it was 2.27 nM; with JUNV-p, 1.55 nM; with GTOV-p, 0.07 nM. Moreover, in the data set “in vitro”, the CC50 stood at 14000 nM.

For the compound `CC(=O)c1ccc(-c2ccc3ncn(-c4ccc(OC(C)C)cc4)c3c2)cc1` [Example A26, 1-(4-{1-[4-(propan-2-yloxy)phenyl]-1H-1,3-benzodiazol-6-yl}phenyl)ethan-1-one], in the data set “in vitro”, the CC50 amounted to 7520 nM. In addition, the EC50 in the data set on TCRV-p is 1.45 nM; in the data set with LASV-p, 0.59 nM; in the data set with MACV-p, 0.7 nM; in the data set with JUNV-p, 0.81 nM; in the data set on GTOV-p, 0.73 nM.

For `CC(C)Oc1ccc(-n2cnc3ccc(-c4ccc(C(C)(C)O)cc4)nc32)cc1` [Example B1, 2-(4-{3-[4-(propan-2-yloxy)phenyl]-3H-imidazo[4,5-b]pyridin-5-yl}phenyl)propan-2-ol], the EC50 is above 1000 nM in the data set with VSV-p; 28 nM in the data set on TCRV-p; 1.61 nM in the data set on LASV-p; 7.09 nM in the data set on MACV-p; 4.95 nM in the data set on JUNV-p; 0.88 nM in the data set on GTOV-p. In addition, in the data set “in vitro”, the CC50 was 12200 nM.

As for `CC(C)Oc1ccc(-n2nnc3ccc(-c4ccc5[nH]ccc5c4)cc32)cc1` [Example B13, 6-(1H-indol-5-yl)-1-[4-(propan-2-yloxy)phenyl]-1H-1,2,3-benzotriazole], the EC50 in the data set with VSV-p came out at 5360 nM; in the data set on TCRV-p, 20.4 nM; in the data set on LASV-p, 1.53 nM; with MACV-p, 5.58 nM; in the data set with JUNV-p it was 1.8 nM; in the data set with GTOV-p, 1.24 nM. The compound further came in with a CC50 in “in vitro” of 6620 nM.

In turn, `CC(C)Oc1ccc(-c2cnc3ccc(-c4ccc5c(ccn5C)c4)cn23)cc1` [Example C22, 1-methyl-5-{3-[4-(propan-2-yloxy)phenyl]imidazo[1,2-a]pyridin-6-yl}-1H-indole] registered a CC50 in “in vitro” of 24400 nM. Also, the EC50 turned out to be 4.94 nM in the data set with TCRV-p; 2.33 nM in the data set with LASV-p; 0.335 nM in the data set with MACV-p; 0.415 nM in the data set with JUNV-p; 0.45 nM with GTOV-p.

Turning to `CC(C)Oc1ccc(-c2ccc3ncc(-c4ccc(C(C)(C)O)cc4)n3c2)cc1` [Example C38, 2-(4-{6-[4-(propan-2-yloxy)phenyl]imidazo[1,2-a]pyridin-3-yl}phenyl)propan-2-ol], the EC50 with TCRV-p was found to be 1.77 nM; in the data set with LASV-p it was 0.84 nM; with GTOV-p it was 0.2 nM.

Compound `CC(C)Oc1ccc(-c2nnc3ccc(-c4ccc5[nH]ccc5c4)cn23)cc1` [Example D7, 5-{3-[4-(propan-2-yloxy)phenyl]-[1,2,4]triazolo[4,3-a]pyridin-6-yl}-1H-indole] showed a CC50 in the data set “in vitro” of 1870 nM. In addition, the EC50 with TCRV-p is 26.3 nM; in the data set with LASV-p, 4.1 nM; in the data set with MACV-p, above 25 nM; in the data set with JUNV-p, 18 nM.

For the compound `CC(C)Oc1ccc(-c2cn3c(-c4ccc5[nH]ccc5c4)cnc3cn2)cc1` [Example D13, 5-{6-[4-(propan-2-yloxy)phenyl]imidazo[1,2-a]pyrazin-3-yl}-1H-indole], the CC50 in “in vitro” was above 100000 nM. The EC50 is 10.3 nM in the data set with TCRV-p, 12.3 nM with LASV-p, 12 nM with MACV-p and 3.29 nM in the data set on JUNV-p.

As for `CC(C)Oc1ccc(-c2cnc3ncc(-c4ccc5[nH]ccc5c4)n3c2)cc1` [Example D16, 5-{6-[4-(propan-2-yloxy)phenyl]imidazo[1,2-a]pyrimidin-3-yl}-1H-indole], the CC50 in “in vitro” turned out to be 7530 nM. Further, the EC50 was determined as 19.9 nM in the data set on TCRV-p; 5.37 nM in the data set with LASV-p; 19.1 nM in the data set on MACV-p; 1.05 nM in the data set on JUNV-p; 3.52 nM in the data set on GTOV-p.

As to `CC(C)Oc1ccc(-c2ccc3noc(-c4ccc(OC(C)C)cc4)c3c2)cc1` [Example D18, 3,5-bis[4-(propan-2-yloxy)phenyl]-2,1-benzoxazole], in “in vitro”, the CC50 was above 100000 nM. Also, the EC50 was above 25 nM in the data set on TCRV-p, above 25 nM with LASV-p, above 25 nM in the data set on MACV-p and 5.58 nM in the data set with JUNV-p.

For `CC(C)Oc1ccc(-c2ccn3cnc(-c4ccc(OC(C)C)cc4)c3c2)cc1` [Example D19, 1,7-bis[4-(propan-2-yloxy)phenyl]imidazo[1,5-a]pyridine], the CC50 in “in vitro” worked out at 7540 nM. The EC50 in the data set with TCRV-p, in the data set with LASV-p, in the data set with MACV-p and in the data set on JUNV-p was above 25 nM in each case.

Consider `CC(C)Oc1ccc(-c2ccc3nc(C(N)=O)c(-c4ccc(OC(C)C)cc4)n3c2)cc1` [Example D22, 3,6-bis[4-(propan-2-yloxy)phenyl]imidazo[1,2-a]pyridine-2-carboxamide], for which the CC50 in “in vitro” stood at 49500 nM. The EC50 in the data set with TCRV-p, with LASV-p, in the data set with MACV-p and with JUNV-p was above 25 nM in each case.

On to `CC(C)Oc1ccc(-c2ccc3nc(C#N)c(-c4ccc(OC(C)C)cc4)n3c2)cc1` [Example D23, 3,6-bis[4-(propan-2-yloxy)phenyl]imidazo[1,2-a]pyridine-2-carbonitrile], for which the CC50 in “in vitro” is above 100000 nM. Besides, the EC50 is above 25 nM in the data set on TCRV-p, 27.4 nM in the data set with LASV-p, above 25 nM in the data set with MACV-p and 3.78 nM in the data set with JUNV-p.
